According to ChEMBL document CHEMBL1201862, “PubChem BioAssay data set” (2004):
The source made the active and inactive calls.

Tests used:
[1] = molecular target: T1, RNA-binding protein pos-1 (Caenorhabditis elegans, UniProt G5EF15); experiment: disruptors of C. elegans POS-1 RNA interaction – biochemical, fluorescence polarization, dose response (AID 1964);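 also: purified POS-1 fused to maltose binding protein made in E. coli; potency of compounds blocking POS-1 binding to fluorescent RNA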
T1 sequence (G5EF15 whole entry): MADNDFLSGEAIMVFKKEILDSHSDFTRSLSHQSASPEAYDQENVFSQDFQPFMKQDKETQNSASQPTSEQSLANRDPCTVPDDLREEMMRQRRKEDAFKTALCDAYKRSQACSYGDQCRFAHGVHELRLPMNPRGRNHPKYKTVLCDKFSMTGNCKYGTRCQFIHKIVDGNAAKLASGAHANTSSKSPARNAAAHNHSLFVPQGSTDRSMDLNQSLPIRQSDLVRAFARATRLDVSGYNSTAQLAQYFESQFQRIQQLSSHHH

[2] = molecular target: T2, Endoribonuclease toxin MazF (Escherichia coli K-12, UniProt P0AE70); experiment: substrate-only fluorescence increase artefacts – biochemical, single-stranded RNase substrate, counter-screen for MazEF activator project, dose response (AID 588502); type: functional
T2 sequence (P0AE70 whole entry): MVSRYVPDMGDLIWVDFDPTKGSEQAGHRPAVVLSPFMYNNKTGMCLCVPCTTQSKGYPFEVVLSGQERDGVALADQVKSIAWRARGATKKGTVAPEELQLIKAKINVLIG

[3] = molecular target: T3, Zinc finger protein mex-5 (Caenorhabditis elegans, UniProt Q9XUB2); experiment: potency of MEX-5 RNA-binding blockers – biochemical, C. elegans, fluorescence polarization, dose response (AID 1960)
T3 sequence (Q9XUB2 whole entry): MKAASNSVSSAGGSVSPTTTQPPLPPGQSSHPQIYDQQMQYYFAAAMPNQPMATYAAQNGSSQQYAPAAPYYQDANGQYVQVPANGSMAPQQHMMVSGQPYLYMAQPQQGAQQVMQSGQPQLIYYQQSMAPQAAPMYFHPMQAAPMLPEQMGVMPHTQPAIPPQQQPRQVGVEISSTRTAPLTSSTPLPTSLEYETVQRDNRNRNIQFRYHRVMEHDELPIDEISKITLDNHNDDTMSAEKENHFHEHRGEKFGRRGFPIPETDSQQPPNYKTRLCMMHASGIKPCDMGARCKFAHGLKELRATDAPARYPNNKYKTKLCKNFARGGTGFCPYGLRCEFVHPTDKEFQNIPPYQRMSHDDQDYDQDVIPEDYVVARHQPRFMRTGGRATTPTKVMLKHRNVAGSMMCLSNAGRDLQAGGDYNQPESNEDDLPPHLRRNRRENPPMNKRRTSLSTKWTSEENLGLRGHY

[4] = molecular target: T2, Endoribonuclease toxin MazF; experiment: activation of MazEF endoribonuclease cleavage – biochemical, fluorescence, single-stranded RNA substrate, uHTS hits, dose response (AID 588481); type: functional
[5] = molecular target: DNA dC->dU-editing enzyme APOBEC-3A (Homo sapiens, UniProt P31941); experiment: Dose Response confirmation of small molecule APOBEC3A DNA Deaminase Inhibitors via a fluorescence-based single-stranded DNA deaminase assay. [Related pubchem assays (depositor defined):AID493011, AID493024]; type: functional
Chain of DNA dC->dU-editing enzyme APOBEC-3A (P31941 whole entry): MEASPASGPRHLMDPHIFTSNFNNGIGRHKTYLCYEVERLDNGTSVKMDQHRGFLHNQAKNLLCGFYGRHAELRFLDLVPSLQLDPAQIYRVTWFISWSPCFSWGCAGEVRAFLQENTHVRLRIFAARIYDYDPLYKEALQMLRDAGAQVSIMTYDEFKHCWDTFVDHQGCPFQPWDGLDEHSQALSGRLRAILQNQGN

[6] = molecular target: DNA dC->dU-editing enzyme APOBEC-3G (Homo sapiens, UniProt Q9HC16); type: functional;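 also: Dose-response counterscreen measuring inhibition of APOBEC3G DNA deaminase activity, run while confirming APOBEC3A inhibitors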
Chain of DNA dC->dU-editing enzyme APOBEC-3G (Q9HC16 whole entry): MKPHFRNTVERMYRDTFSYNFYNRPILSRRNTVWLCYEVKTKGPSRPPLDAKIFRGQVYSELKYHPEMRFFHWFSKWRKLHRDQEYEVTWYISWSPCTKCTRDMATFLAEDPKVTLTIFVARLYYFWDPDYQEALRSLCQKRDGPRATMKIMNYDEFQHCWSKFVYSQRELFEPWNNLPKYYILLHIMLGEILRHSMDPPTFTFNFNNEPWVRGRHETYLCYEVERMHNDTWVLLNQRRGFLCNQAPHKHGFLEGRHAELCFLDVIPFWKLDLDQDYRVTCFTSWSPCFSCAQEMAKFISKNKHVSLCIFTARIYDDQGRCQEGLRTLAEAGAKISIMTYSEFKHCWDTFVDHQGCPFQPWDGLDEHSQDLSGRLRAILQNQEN

Vero = experiment: viability of Vero cells under compound – cytotoxicity control for flavivirus capping enzyme inhibitors (AID 588742); type: functional; details: Chlorocebus sabaeus
Troponin, cardiac muscle = Troponin, cardiac muscle (Homo sapiens, UniProt P19429+P45379+P63316); experiment: Fluorescence-based biochemical high throughput dose response assay for activators of the calcium sensitivity of cardiac Regulated Thin Filaments (RTF). [Related pubchem assays (depositor defined):AID493008, AID493018, AID504382, AID504383]; type: protein-complex assay
[7] = molecular target: T4, Ubiquitin-conjugating enzyme E2 N (Homo sapiens, UniProt P61088); type: functional
T4 sequence (P61088 whole entry): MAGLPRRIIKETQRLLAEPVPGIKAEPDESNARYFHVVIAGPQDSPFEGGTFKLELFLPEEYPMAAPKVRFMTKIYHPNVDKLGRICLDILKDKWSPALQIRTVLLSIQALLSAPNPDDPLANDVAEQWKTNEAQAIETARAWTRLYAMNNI

[8] = molecular target: T4, Ubiquitin-conjugating enzyme E2 N; type: functional; remark: listed apart in the source
Bcl-2-related protein A1 = molecular target: T5, Bcl-2-related protein A1 (Mus musculus, UniProt Q07440); type: functional;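 also: confirmatory dose–response counterscreen on Bfl-1, used to check hits from a UBC13 polyubiquitin inhibitor campaign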
T5 sequence (Q07440 whole entry): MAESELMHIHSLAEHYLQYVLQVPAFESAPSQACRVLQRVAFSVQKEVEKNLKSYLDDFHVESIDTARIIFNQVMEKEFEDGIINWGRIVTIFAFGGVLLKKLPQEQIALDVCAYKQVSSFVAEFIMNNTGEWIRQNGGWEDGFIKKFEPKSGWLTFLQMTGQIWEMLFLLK

[9] = molecular target: Dual specificity tyrosine-phosphorylation-regulated kinase 1A (Rattus norvegicus, UniProt Q63470); type: biochemical, Homo sapiens
[10] = molecular target: T6, Carboxy-terminal domain RNA polymerase II polypeptide A small phosphatase 1 (Homo sapiens, UniProt Q9GZU7); experiment: CTDSP1 inhibitors, concentration-response, biochemical, absorbance readout, ultra-high-throughput screen actives (AID 540297); type: functional
T6 sequence (Q9GZU7 whole entry): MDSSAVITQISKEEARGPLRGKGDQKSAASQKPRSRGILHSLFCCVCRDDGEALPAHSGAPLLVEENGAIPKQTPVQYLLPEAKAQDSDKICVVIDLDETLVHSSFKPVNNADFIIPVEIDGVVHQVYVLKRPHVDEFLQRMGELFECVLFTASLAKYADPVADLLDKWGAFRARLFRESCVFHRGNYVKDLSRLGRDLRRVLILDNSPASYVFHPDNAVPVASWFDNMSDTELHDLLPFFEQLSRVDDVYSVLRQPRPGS

[11] = HIV-1 Vif–A3G interaction blockers – biochemical, TR-FRET, GST-Vif 1-94, biotin-A3G peptide, dose response retest, primary screen (AID 1117319); type: functional;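 also: TR-FRET signal of purified GST-Vif binding a biotinylated A3G peptide; inhibitors lower the FRET signal by blocking Vif and A3G binding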
[12] = fluconazole-exposed Candida albicans growth modulators – fluorescence, retest, confirmation (AID 2467); type: functional, cell-based
H4 = experiment: Luminescence Cell-Based Dose Response HTS to Identify Activators of 5'UTR Stem-Loop Driven Prion Protein mRNA Translation in H4 Neuroglioblastoma Cells. [Related pubchem assays: 1829 (Project Summary), 1814 (Primary HTS)]; type: functional; details: Homo sapiens
[13] = reduction of Shn3 3'UTR-driven luciferase in osteoblasts – cell-based, Clone20 osteoblasts, firefly luciferase, cherry-picked, dose response (AID 624132); type: functional;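 also: firefly luciferase luminescence from reporter carrying the Shn3 3'UTR in osteoblasts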
HEK293 = experiment: EBV LMP1 TES2 canonical NF-kB signalling blockers – cell-based, HEK293, luciferase, cherry-pick, dose response (AID 588343); type: functional; details: Homo sapiens
[14] = NIH-3T3 fibroblast cytotoxicity, dose response, cytotoxicity control, cell-based, fluorescence, Alamar Blue, secondary assay (AID 2327); type: functional;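 also: NIH-3T3 mouse fibroblasts cultured with fluconazole at 8 µg/mL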
INS1 = experiment: INS-1E survival protection against cytokine death – cell-based, luminescence, retest, dose response (AID 449756); type: functional; details: Rattus norvegicus;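 also: cell death triggered by IL-1 beta plus TNF-alpha plus IFN-gamma mixture; protective hits raise ATP signal compared with cytokine alone wells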
[15] = Luminescence Cell-Based Dose Response HTS to Identify Activators of Luciferase Translation or Activity in H4 […] Cells. [Related pubchem assays: 1829 (Project Summary), 1814 (Primary HTS)]; type: functional
[16] = Luminescence Cell-Based Dose Confirmation HTS to Identify Activators of 5'UTR Stem-Loop Driven Alpha-Synuclein mRNA Translation in H4 Neuroglioblastoma Cells. [Related pubchem assays: 1829 (Project Summary), 1814 (Primary HTS)]; type: functional
[17] = NIH3T3 cell viability loss – ATP luminescence, mouse fibroblasts, counter-screen, dose response (AID 2010); type: functional, cell-based;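 also: cells exposed to compound for about 90 hours before reading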
[18] = loss of viability in HepG2 cells – cell-based, CellTiter-Glo, cherry-picked, cytotoxicity control for Shn3 inhibitor project, dose response (AID 624134); type: functional
[19] = Trypanosoma cruzi growth suppression in host cells – NIH3T3 host cells, beta-gal luminescence, confirmation (AID 2044); type: functional, cell-based;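 also: intracellular parasites grown in NIH/3T3 mouse fibroblasts as host cells; luminescent beta-galactosidase reporter signal from transgenic T. cruzi replicating inside host cells; inhibitors lower the luminescence signal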
[20] = non-specific 3'UTR reporter inhibition in Clone20-Shn3RL – cell-based, Renilla luciferase, cherry-picked, counter-screen for Shn3 inhibitor project, dose response (AID 624133); type: functional
[21] = molecular target: T7, Heat shock factor protein 1 (Mus musculus, UniProt P38532); experiment: enhancement of HSF1-driven luciferase signal – cell-based, NIH3T3, luminescence, dose retest, confirmation (AID 435004); type: functional;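 also: stress induced by proteasome inhibitor MG132 added 30 min after compound; luciferase reporter driven by HSF1 response element in NIH3T3 cells; actives raise luminescence as potentiators of the MG132 stress response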
T7 sequence (P38532 whole entry): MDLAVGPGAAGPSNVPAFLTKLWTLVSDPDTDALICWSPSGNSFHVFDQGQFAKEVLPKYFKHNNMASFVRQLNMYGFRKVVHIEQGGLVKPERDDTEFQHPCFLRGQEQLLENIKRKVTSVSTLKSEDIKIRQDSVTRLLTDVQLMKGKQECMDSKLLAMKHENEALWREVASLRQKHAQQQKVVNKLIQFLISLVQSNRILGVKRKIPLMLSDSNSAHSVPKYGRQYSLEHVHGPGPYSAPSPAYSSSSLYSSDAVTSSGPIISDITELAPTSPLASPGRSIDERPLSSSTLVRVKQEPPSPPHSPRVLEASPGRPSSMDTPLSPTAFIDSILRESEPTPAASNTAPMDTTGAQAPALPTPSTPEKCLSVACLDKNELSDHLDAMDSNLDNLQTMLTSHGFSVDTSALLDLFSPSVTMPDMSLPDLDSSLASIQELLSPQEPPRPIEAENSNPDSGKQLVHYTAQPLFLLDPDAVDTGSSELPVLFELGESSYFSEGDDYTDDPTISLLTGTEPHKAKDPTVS

CCCCN1C(=O)NC(=O)/C(=C/c2c[nH]c3ccccc23)C1=O
EC50 [1]: 28.4 µM (inconclusive) | EC50 [2]: > 99 µM (inactive) | EC50 [3]: 29.9 µM (active) | EC50 [4]: > 99 µM (inactive)

COc1cc2c(cc1OC)-c1c(OC)c(OC)cc3c1[C@H](C2)[N+](C)(C)CC3 [GLAUCINE METHIODIDE]
IC50 [5]: 1.85 µM (active) | IC50 [6]: 1.66 µM (active)

O=C(NCc1ccco1)c1cc(-c2cccs2)nc2ccccc12
CC50 (Vero): > 40 µM (active)

CNc1ccccc1C(C)(C)c1cc(C)[nH]n1
EC50 (Troponin, cardiac muscle): > 71.5 µM (inactive)

COc1cccc(/C=N\NC(=O)c2sc(N)nc2C)c1OC
IC50 [7]: 0.965 µM (active) | IC50 [8]: 0.947 µM (active) | IC50 (Bcl-2-related protein A1): > 20 µM (inactive)

COc1ccc2c(c1)c(=O)oc1c(C)c(OCc3cc(C(=O)O)oc3C)ccc12
AC50 [9]: 1.51 µM (active) | IC50 [10]: 9.08 µM (active)

CC(=O)C(=CNc1noc(C)c1Br)C(C)=O
EC50 (Troponin, cardiac muscle): > 71.6 µM (inactive)

COc1ccc(S(=O)(=O)N(CCc2ccccc2)CC(=O)NC(C)C)cc1
IC50 [5]: 6.35 µM (active) | IC50 [11]: > 100 µM (active) | IC50 [6]: 5.95 µM (active)

CCn1c(/C=C/c2ccc([N+](=O)[O-])o2)nc2ccccc2c1=O
EC50 [1]: 5.46 µM (inconclusive) | EC50 [12]: 0.682 µM (active) | EC50 (H4): > 120 µM (not active) | AC50 [13]: 4.51 µM (active) | EC50 [2]: > 99 µM (inactive) | AC50 (HEK293): 10.8 µM (active) | EC50 [14]: 7.6 µM (inconclusive) | AC50 (INS1): 3.43 µM (active) | EC50 [15]: > 60 µM (not active) | EC50 [16]: > 120 µM (not active) | EC50 [17]: 3.14 µM (active) | AC50 [18]: 13.6 µM (active) | EC50 [19]: 0.213 µM (active) | AC50 [20]: 8.48 µM (active) | EC50 [3]: > 150 µM (inconclusive) | EC50 [4]: > 99 µM (inactive)

CCc1nc(Nc2cccc(O)c2)c2oc3ccccc3c2n1
AC50 [9]: 9.77 µM (active)

Cc1cc(Cl)nc(N)n1
EC50 (Troponin, cardiac muscle): > 71.4 µM (inactive)

NC(=O)NC(CC(=O)NNC(=O)c1ccccn1)c1ccc(Cl)cc1 (stereo not given)
IC50 [7]: 12.4 µM (active) | IC50 [8]: 19.6 µM (active) | IC50 (Bcl-2-related protein A1): > 20 µM (inactive)

O=C1NC(=S)S/C1=C/c1ccc(OC(=O)c2ccco2)cc1
AC50 [9]: 4.1 µM (active) | EC50 [21]: > 260 µM (inactive) | EC50 [2]: 16.4 µM (active) | EC50 [4]: > 99 µM (inactive)

O=C(CSCc1ccc([N+](=O)[O-])cc1)N[N-][C+]1CCCCCC1
IC50 [7]: 13.7 µM (active) | IC50 [8]: 5.71 µM (active) | IC50 (Bcl-2-related protein A1): > 20 µM (inactive)
